Test results taken from patent US5631230A, “Receptor selective analogues of cholecystokinin-8” (priority 1994, dated 1997).
Non-standard residues stand in square brackets, D forms with d. Residues, ends and D or L forms follow the SMILES beside them. *: point of attachment. sY = N[C@@H](Cc1ccc(OS(=O)(=O)O)cc1)C(=O)O; X1 = O=C(O)C[C@H](NS(=O)(=O)O)C(=O)*; NMeNle = CCCC[C@H](NC)C(=O)O; Nle = CCCC[C@H](N)C(=O)O

Experiments:
[1] = biological target: T1, [^125 I] CCK-8 binding sites (CCK receptor), Rat Pancreas (Rattus norvegicus, UniProt P30551); assay: Inhibition of [125I] CCK-8 binding, rat pancreas
T1 construct: from tissue; host or cells: rat pancreas
T1 sequence (P30551 1-444): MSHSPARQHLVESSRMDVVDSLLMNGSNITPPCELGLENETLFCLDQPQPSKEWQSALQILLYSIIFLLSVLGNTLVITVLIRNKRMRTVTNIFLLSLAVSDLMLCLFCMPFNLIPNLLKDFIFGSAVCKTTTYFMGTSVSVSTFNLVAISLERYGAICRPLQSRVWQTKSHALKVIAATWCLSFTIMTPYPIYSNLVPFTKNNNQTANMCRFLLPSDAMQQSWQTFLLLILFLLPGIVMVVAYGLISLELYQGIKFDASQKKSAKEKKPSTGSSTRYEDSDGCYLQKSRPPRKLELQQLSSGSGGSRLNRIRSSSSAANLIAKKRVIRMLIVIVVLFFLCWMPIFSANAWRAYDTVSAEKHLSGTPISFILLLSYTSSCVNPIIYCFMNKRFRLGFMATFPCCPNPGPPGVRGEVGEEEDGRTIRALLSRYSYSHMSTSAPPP

[2] = biological target: T2, [^125 I] CCK-8 binding sites (CCK receptor), Guinea Pig Pancreas (Cavia porcellus, UniProt Q63931); assay: Inhibition of [125I] CCK-8 binding, guinea pig pancreas; details: read-out: Guinea Pig Pancreas IV50
T2 construct: from tissue; host or cells: guinea pig pancreas
T2 sequence (Q63931 1-430): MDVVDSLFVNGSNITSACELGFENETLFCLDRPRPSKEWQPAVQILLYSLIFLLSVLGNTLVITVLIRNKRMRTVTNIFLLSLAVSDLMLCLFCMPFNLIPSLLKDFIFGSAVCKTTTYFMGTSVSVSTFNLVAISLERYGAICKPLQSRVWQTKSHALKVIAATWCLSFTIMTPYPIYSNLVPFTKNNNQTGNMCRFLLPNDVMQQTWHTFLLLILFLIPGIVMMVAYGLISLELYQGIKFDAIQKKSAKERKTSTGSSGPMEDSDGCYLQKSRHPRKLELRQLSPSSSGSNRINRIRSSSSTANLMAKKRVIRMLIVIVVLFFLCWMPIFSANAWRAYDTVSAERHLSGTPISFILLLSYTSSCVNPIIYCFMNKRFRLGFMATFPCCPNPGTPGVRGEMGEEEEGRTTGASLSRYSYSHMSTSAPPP

[3] = tested on: [^125 I] CCK-8 binding sites (CCK receptor), Guinea Pig Brain; assay: Inhibition of [125I] CCK-8 binding, guinea pig brain; details: for Ratio Pancreas/Brain (Guinea Pig): value in brackets, IC50 pancreas / IC50 brain; for IC50: inhibition of [125I] CCK-8 binding, guinea pig brain
[4] = biological target: T3, [^125 I] CCK-8 binding sites (CCK receptor), Rat Brain (Rattus norvegicus, UniProt P30553); assay: Inhibition of [125I] CCK-8 binding, rat brain; details: for Ratio Pancreas/Brain Rat: IC50 pancreas / IC50 brain
T3 construct: from tissue; host or cells: rat brain
T3 sequence (P30553 1-452): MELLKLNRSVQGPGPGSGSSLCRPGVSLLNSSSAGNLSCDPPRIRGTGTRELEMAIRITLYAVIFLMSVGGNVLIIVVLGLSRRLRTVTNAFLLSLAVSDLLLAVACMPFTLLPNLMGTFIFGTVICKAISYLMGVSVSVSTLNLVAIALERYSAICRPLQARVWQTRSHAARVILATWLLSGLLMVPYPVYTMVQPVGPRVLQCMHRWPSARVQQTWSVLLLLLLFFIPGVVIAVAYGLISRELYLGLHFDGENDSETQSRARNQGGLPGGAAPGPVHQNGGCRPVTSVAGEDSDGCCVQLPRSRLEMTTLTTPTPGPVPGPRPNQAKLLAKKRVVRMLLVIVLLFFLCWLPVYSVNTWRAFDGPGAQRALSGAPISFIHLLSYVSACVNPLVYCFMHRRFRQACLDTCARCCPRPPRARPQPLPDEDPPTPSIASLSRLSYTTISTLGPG

| Compound | IC50 [1] | IC50 [2] | Ratio Pancreas/Brain (Guinea Pig) [3] | IC50 [3] | IC50 [4] | Ratio Pancreas/Brain Rat [4] |
| --- | --- | --- | --- | --- | --- | --- |
| CSCC[C@H](NC(=O)[C@H](Cc1ccc(OS(=O)(=O)O)cc1)NC(=O)[C@@H](N)CC(=O)O)C(=O)NCC(=O)N[C@@H](Cc1c[nH]c2ccccc12)C(=O)N[C@@H](CCSC)C(=O)N[C@@H](CC(=O)O)C(=O)N[C@@H](Cc1ccccc1)C(N)=O [CCK-8, Asp-Tyr-(SO3^-)-Met-Gly-Trp-Met-Asp-Phe-NH2, reference compound] | 0.129 nM |  |  |  |  |  |
| CCCC[C@@H](C(=O)N[C@@H](CC(=O)O)C(=O)N[C@@H](Cc1ccccc1)C(N)=O)N(C)C(=O)[C@H](Cc1c[nH]c2ccccc12)NC(=O)CNC(=O)[C@H](CCCC)N(C)C(=O)[C@H](Cc1ccc(O)cc1)NC(=O)[C@@H](N)CC(=O)O [Compound 2, H-Asp-Tyr-N-MeNle-Gly-Trp-N-MeNle-Asp-Phe-NH2] | 1030 nM | 958 nM | 4146 | 0.23 nM | 0.131 nM | 7,863 |
| CCCC[C@H](NC(=O)[C@H](Cc1c[nH]c2ccccc12)NC(=O)CNC(=O)[C@@H](NC(=O)[C@H](Cc1ccc(OS(=O)(=O)O)cc1)NC(=O)[C@H](CC(=O)O)NS(=O)(=O)O)C(C)C)C(=O)N[C@@H](CC(=O)O)C(=O)N[C@@H](Cc1ccccc1)C(N)=O [Compound 11, H-Asp-Tyr-Val-Gly-Trp-Nle-Asp-Phe-NH2 Bis-SO3 θ] (X1-[sY]VGW[Nle]DF-NH2; N-terminus and C-terminus assumed) |  |  |  |  |  | 33.46 |
| CCCC[C@H](NC(=O)[C@H](Cc1c[nH]c2ccccc12)NC(=O)CNC(=O)[C@H](CCCC)N(C)C(=O)[C@H](Cc1ccc(O)cc1)NC(=O)[C@@H](N)CC(=O)O)C(=O)N[C@@H](CC(=O)O)C(=O)N[C@@H](Cc1ccccc1)C(N)=O [Compound 4, H-Asp-Tyr-N-MeNle-Gly-Trp-Nle-Asp-Phe-NH2] | 46.7 nM |  |  |  | 1.45 nM | 32.2 |
| CCCC[C@H](NC(=O)[C@H](Cc1c[nH]c2ccccc12)NC(=O)CNC(=O)[C@H](NC(=O)[C@H](Cc1ccc(O)cc1)NC(=O)[C@@H](N)CC(=O)O)C(C)C)C(=O)N[C@@H](CC(=O)O)C(=O)N[C@@H](Cc1ccccc1)C(N)=O [Compound 7, H-Asp-Tyr-D-Val-Gly-Trp-Nle-Asp-Phe-NH2] | 521 nM |  |  |  | 1.26 nM | 413 |
| CCCC[C@H](NC(=O)[C@H](Cc1c[nH]c2ccccc12)NC(=O)CNC(=O)[C@H](CCCC)N(C)C(=O)[C@H](Cc1ccc(OS(=O)(=O)O)cc1)NC(=O)[C@H](CC(=O)O)NS(=O)(=O)O)C(=O)N[C@@H](CC(=O)O)C(=O)N[C@@H](Cc1ccccc1)C(N)=O [Compound 9, H-Asp-Tyr-N-MeNle-Gly-Trp-Nle-Asp-Phe-NH2 Bis-SO3 θ] (X1-[sY][NMeNle]GW[Nle]DF-NH2; N-terminus assumed) |  | 29100 nM | 9099 | 3.19 nM |  |  |
| CCCC[C@H](NC(=O)[C@H](Cc1ccc(OS(=O)(=O)O)cc1)NC(=O)[C@H](CC(=O)O)NS(=O)(=O)O)C(=O)NCC(=O)N[C@@H](Cc1c[nH]c2ccccc12)C(=O)N(C)[C@@H](CCCC)C(=O)N[C@@H](CC(=O)O)C(=O)N[C@@H](Cc1ccccc1)C(N)=O [Compound 10, H-Asp-Tyr-Nle-Gly-Trp-N-MeNle-Asp-Phe-NH2 -Bis-SO3θ] (X1-[sY][Nle]GW[NMeNle]DF-NH2; N-terminus assumed) | 1.39 nM |  |  |  | 0.496 nM | 2.81 |
| CCCC[C@@H](C(=O)N[C@@H](CC(=O)O)C(=O)N[C@@H](Cc1ccccc1)C(N)=O)N(C)C(=O)[C@H](Cc1c[nH]c2ccccc12)NC(=O)CNC(=O)[C@H](CCCC)N(C)C(=O)[C@H](Cc1ccc(OS(=O)(=O)O)cc1)NC(=O)[C@H](CC(=O)O)NS(=O)(=O)O [Compound 3, H-Asp-Tyr-N-MeNle-Gly-Trp-N-MeNle-Asp-Phe-NH2 Bis-SO3^θ] (X1-[sY][NMeNle]GW[NMeNle]DF-NH2; N-terminus assumed) | 0.46 nM |  |  |  | 1.41 nM | 0.29 |
| CCCC[C@H](NC(=O)[C@H](Cc1c[nH]c2ccccc12)NC(=O)CNC(=O)[C@H](NC(=O)[C@H](Cc1ccc(OS(=O)(=O)O)cc1)NC(=O)[C@H](CC(=O)O)NS(=O)(=O)O)C(C)C)C(=O)N[C@@H](CC(=O)O)C(=O)N[C@@H](Cc1ccccc1)C(N)=O [Compound 12, H-Asp-Tyr-D-Val-Gly-Trp-Nle-Asp-Phe-NH2 Bis-SO3 θ] (X1-[sY][dV]GW[Nle]DF-NH2; N-terminus and C-terminus assumed) |  |  |  |  |  | 39.5 |
| CCCC[C@H](NC(=O)[C@H](Cc1c[nH]c2ccccc12)NC(=O)CNC(=O)[C@@H](NC(=O)[C@H](Cc1ccc(O)cc1)NC(=O)[C@@H](N)CC(=O)O)C(C)C)C(=O)N[C@@H](CC(=O)O)C(=O)N[C@@H](Cc1ccccc1)C(N)=O [Compound 6, H-Asp-Tyr-Val-Gly-Trp-Nle-Asp-Phe-NH2] | 10.6 nM |  |  |  | 0.318 nM | 33.5 |
| CCCC[C@H](NC(=O)[C@H](Cc1ccc(O)c(O)c1)NC(=O)[C@@H](N)CC(=O)O)C(=O)NCC(=O)N[C@@H](Cc1c[nH]c2ccccc12)C(=O)N[C@@H](CCCC)C(=O)N[C@@H](CC(=O)O)C(=O)N[C@@H](Cc1ccccc1)C(N)=O [Compound 8, H-Asp-Dopa-Nle-Gly-Trp-Nle-Asp-Phe-NH2] | 0.975 nM |  |  |  | 9.7 nM | 0.0010 |
| CCCC[C@@H](C(=O)N[C@@H](CC(=O)O)C(=O)N[C@@H](Cc1ccccc1)C(N)=O)N(C)C(=O)[C@H](Cc1c[nH]c2ccccc12)NC(=O)CN [Compound 1, H-Gly-Trp-N-MeNle-Asp-Phe-NH2] (H-GW[NMeNle]DF-NH2) | > 10000 nM | 8000 nM |  |  | 4.67 nM |  |
| CCCC[C@H](NC(=O)[C@H](Cc1ccc(O)cc1)NC(=O)[C@@H](N)CC(=O)O)C(=O)NCC(=O)N[C@@H](Cc1c[nH]c2ccccc12)C(=O)N(C)[C@@H](CCCC)C(=O)N[C@@H](CC(=O)O)C(=O)N[C@@H](Cc1ccccc1)C(N)=O [Compound 5, H-Asp-Tyr-Nle-Gly-Trp-N-MeNle-AsP-Phe-NH2] | 170 nM |  |  |  | 976 nM | 0.17 |
